Where a name gives a salt, the structure may show the parent alone.
Assays:
[1] = Dynamic solubility experiment at 37°C (water, SGF, FaSSIF, FeSSIF); details: for S: solubility: solid feed 10 mg/mL; for pH: pH value of the filtrate
Protocol: Rotating mixing was carried out at 37°C at a solid feed concentration of 10 mg/mL (calculated as the compound of Formula I). […] After sampling at each time point, the samples were centrifuged (10000 rpm) and filtered (0.45 µm PTFE filter head), and the HPLC concentration and pH value of the filtrate were measured.
100 mg of NaCl and 50 mg of Triton X-100 were weighed into a 50 mL volumetric flask, and purified water was added to complete dissolution. 816 µL of 1 M hydrochloric acid was added thereto, and the pH was adjusted to 1.8 with 1 M hydrochloric acid or 1 M NaOH solution. Purified water was added to make up to volume.
340 mg of anhydrous NaH2PO4 and 620 mg of NaCl were weighed into a 100 mL volumetric flask. Purified water was added to complete dissolution, followed by addition of 55.44 µL of 50% NaOH solution, and the pH was adjusted to 6.5 using 1M HCl or 1M NaOH solution. Purified water was added to make up to volume. 110 mg of SIF powder was then weighed into a 50 mL volumetric flask, added with the above solution to complete dissolution and make up to volume.
0.82 mL of glacial acetic acid and 1.18 g of NaCl were added to a 100 mL volumetric flask. Purified water was added to complete dissolution, followed by addition of 528 µL of 50% NaOH solution, and the pH was adjusted to 5.0 using 1M HCl or 1M NaOH solution. Purified water was added to make up to volume. 560 mg of SIF powder was then weighed into a 50 mL volumetric flask, added with the above solution to complete dissolution and make up to volume.

[2] = Solid-state stability (XRPD and HPLC after open storage); assay type: physicochemical; details: for Crystal form: XRPD
Protocol: The purity test, dynamic solubility test, and stability test in the assay were measured using an Agilent 1260 high-performance liquid chromatograph, and the salt formation molar ratio of ions was tested by ion chromatography, and the analytical conditions are shown in Table 19 and Table 20. Table 19 High-performance liquid chromatography test conditions

[3] = Hygroscopicity test by dynamic vapor sorption (DVS); assay type: physicochemical; details: DVS, 25°C, 0%RH to 95%RH
Protocol: The dynamic vapor sorption (DVS) curve was collected on DVS IntrInsic from SMS (surface measurement systems). The relative humidity at 25°C was corrected using the deliquescence points of LiCl, Mg(NO3)2, and KCl. Table 18 DVS test parameters
The percentage change in sample mass was collected under constant temperature at 25°C as humidity varied from 0%RH to 95%RH.

[4] = 25°C/60%RH/open, 1 week, listed as Crystal form A ofp-toluenesulfonate salt
[5] = 40°C/75%RH/open, 1 week, listed as Crystal form A ofp-toluenesulfonate salt

**Q.** With `Cc1cc(OCCN2C[C@H]3COC[C@H]3C2)ccc1-c1ccc(CC(=O)NCc2ccccc2)nc1` [Crystal form A of benzenesulfonate salt] as the compound, how does the “S: solubility” value ([1]; FaSSIF, 1 hour, 60 min) read?
**A.** 3980 µg/mL

**Q.** And the “S: solubility” value ([1]; FaSSIF, 4 hours, 240 min)?
**A.** 3640 µg/mL

**Q.** What about the “S: solubility” value ([1]; FaSSIF, 24 hours, 1440 min) of the same compound?
**A.** 3550 µg/mL

**Q.** And the “S: solubility” value ([1]; FeSSIF, 1 hour, 60 min)?
**A.** 3150 µg/mL

**Q.** And the “S: solubility” value ([1]; FeSSIF, 4 hours, 240 min)?
**A.** 2890 µg/mL

**Q.** What about the “S: solubility” value ([1]; FeSSIF, 24 hours, 1440 min) of the same compound?
**A.** 2910 µg/mL

**Q.** And the “S: solubility” value ([1]; H2O, 1 hour, 60 min)?
**A.** 8290 µg/mL

**Q.** What about the “S: solubility” value ([1]; H2O, 4 hours, 240 min) of the same compound?
**A.** 8390 µg/mL

**Q.** And the “S: solubility” value ([1]; H2O, 24 hours, 1440 min)?
**A.** 8120 µg/mL

**Q.** What about the “S: solubility” value ([1]; SGF, 1 hour, 60 min) of the same compound?
**A.** 9940 µg/mL

**Q.** And the “S: solubility” value ([1]; SGF, 4 hours, 240 min)?
**A.** 9950 µg/mL

**Q.** And the “S: solubility” value ([1]; SGF, 24 hours, 1440 min)?
**A.** 9700 µg/mL

**Q.** What about the pH ([1]; FaSSIF, 1 hour) of the same compound?
**A.** 6.1

**Q.** And the pH ([1]; FaSSIF, 4 hours)?
**A.** 6.1

**Q.** What about the pH ([1]; FaSSIF, 24 hours) of the same compound?
**A.** 6.1

**Q.** What about the pH ([1]; FeSSIF, 1 hour) of the same compound?
**A.** 4.9

**Q.** What about the pH ([1]; FeSSIF, 4 hours) of the same compound?
**A.** 4.9

**Q.** And the pH ([1]; FeSSIF, 24 hours)?
**A.** 4.9

**Q.** What about the pH ([1]; H2O, 1 hour) of the same compound?
**A.** 5.6

**Q.** What about the pH ([1]; H2O, 4 hours) of the same compound?
**A.** 5.6

**Q.** What about the pH ([1]; H2O, 24 hours) of the same compound?
**A.** 5.6

**Q.** What about the pH ([1]; SGF, 1 hour) of the same compound?
**A.** 3.4

**Q.** And the pH ([1]; SGF, 4 hours)?
**A.** 3.5

**Q.** What about the pH ([1]; SGF, 24 hours) of the same compound?
**A.** 3.5

**Q.** And the “Purity (area%)” value ([2]; 25°C/60%RH/open, 1 week)?
**A.** 97.61 area%

**Q.** And the “Relative to initial (%)” value ([2]; 25°C/60%RH/open, 1 week)?
**A.** 99.8%

**Q.** And the Crystal form ([2]; 25°C/60%RH/open, 1 week)?
**A.** Crystal form A of benzenesulfonate salt

**Q.** What about the “Purity (area%)” value ([2]; 40°C/75%RH/open, 1 week) of the same compound?
**A.** 97.61 area%

**Q.** What about the “Relative to initial (%)” value ([2]; 40°C/75%RH/open, 1 week) of the same compound?
**A.** 99.8%

**Q.** And the Crystal form ([2]; 40°C/75%RH/open, 1 week)?
**A.** Crystal form A of benzenesulfonate salt

**Q.** And the “Purity (area%)” value ([2]; Initial)?
**A.** 97.78 area%

**Q.** And the hygroscopicity ([3]; listed as crystal form A of the benzenesulfonate salt)?
**A.** slightly hygroscopic

**Q.** Which “S: solubility” value ([1]; FaSSIF, 1 hour, listed as Crystal form A ofp-toluenesulfonate salt, 60 min) does the source give for `Cc1cc(OCCN2C[C@H]3COC[C@H]3C2)ccc1-c1ccc(CC(=O)NCc2ccccc2)nc1` here?
**A.** 2780 µg/mL

**Q.** What about the “S: solubility” value ([1]; FaSSIF, 4 hours, listed as Crystal form A ofp-toluenesulfonate salt, 240 min) of the same compound?
**A.** 2780 µg/mL

**Q.** And the “S: solubility” value ([1]; FaSSIF, 24 hours, listed as Crystal form A ofp-toluenesulfonate salt, 1440 min)?
**A.** 2680 µg/mL

**Q.** What about the “S: solubility” value ([1]; FeSSIF, 1 hour, listed as Crystal form A ofp-toluenesulfonate salt, 60 min) of the same compound?
**A.** 4120 µg/mL

**Q.** And the “S: solubility” value ([1]; FeSSIF, 4 hours, listed as Crystal form A ofp-toluenesulfonate salt, 240 min)?
**A.** 2510 µg/mL

**Q.** And the “S: solubility” value ([1]; FeSSIF, 24 hours, listed as Crystal form A ofp-toluenesulfonate salt, 1440 min)?
**A.** 2300 µg/mL

**Q.** What about the “S: solubility” value ([1]; H2O, 1 hour, listed as Crystal form A ofp-toluenesulfonate salt, 60 min) of the same compound?
**A.** 5970 µg/mL

**Q.** What about the “S: solubility” value ([1]; H2O, 4 hours, listed as Crystal form A ofp-toluenesulfonate salt, 240 min) of the same compound?
**A.** 6130 µg/mL

**Q.** And the “S: solubility” value ([1]; H2O, 24 hours, listed as Crystal form A ofp-toluenesulfonate salt, 1440 min)?
**A.** 5750 µg/mL

**Q.** What about the “S: solubility” value ([1]; SGF, 1 hour, listed as Crystal form A ofp-toluenesulfonate salt, 60 min) of the same compound?
**A.** 9410 µg/mL

**Q.** And the “S: solubility” value ([1]; SGF, 4 hours, listed as Crystal form A ofp-toluenesulfonate salt, 240 min)?
**A.** 9460 µg/mL

**Q.** And the “S: solubility” value ([1]; SGF, 24 hours, listed as Crystal form A ofp-toluenesulfonate salt, 1440 min)?
**A.** 8970 µg/mL

**Q.** And the pH ([1]; FaSSIF, 1 hour, listed as Crystal form A ofp-toluenesulfonate salt)?
**A.** 6.0

**Q.** And the pH ([1]; FaSSIF, 4 hours, listed as Crystal form A ofp-toluenesulfonate salt)?
**A.** 6.1

**Q.** What about the pH ([1]; FaSSIF, 24 hours, listed as Crystal form A ofp-toluenesulfonate salt) of the same compound?
**A.** 6.1

**Q.** And the pH ([1]; FeSSIF, 1 hour, listed as Crystal form A ofp-toluenesulfonate salt)?
**A.** 4.9

**Q.** And the pH ([1]; FeSSIF, 4 hours, listed as Crystal form A ofp-toluenesulfonate salt)?
**A.** 4.9

**Q.** What about the pH ([1]; FeSSIF, 24 hours, listed as Crystal form A ofp-toluenesulfonate salt) of the same compound?
**A.** 4.9

**Q.** And the pH ([1]; H2O, 1 hour, listed as Crystal form A ofp-toluenesulfonate salt)?
**A.** 5.3

**Q.** And the pH ([1]; H2O, 4 hours, listed as Crystal form A ofp-toluenesulfonate salt)?
**A.** 5.4

**Q.** And the pH ([1]; H2O, 24 hours, listed as Crystal form A ofp-toluenesulfonate salt)?
**A.** 5.2

**Q.** What about the pH ([1]; SGF, 1 hour, listed as Crystal form A ofp-toluenesulfonate salt) of the same compound?
**A.** 3.3

**Q.** What about the pH ([1]; SGF, 4 hours, listed as Crystal form A ofp-toluenesulfonate salt) of the same compound?
**A.** 3.3

**Q.** What about the pH ([1]; SGF, 24 hours, listed as Crystal form A ofp-toluenesulfonate salt) of the same compound?
**A.** 3.3

**Q.** And the Crystal form [2, 4]?
**A.** Crystal form A of p-toluenesulfonate salt

**Q.** What about the “Purity (area%)” value [2, 4] of the same compound?
**A.** 97.38 area%

**Q.** And the “Relative to initial (%)” value [2, 4]?
**A.** 99.7%

**Q.** What about the Crystal form [2, 5] of the same compound?
**A.** Crystal form A of p-toluenesulfonate salt

**Q.** And the “Purity (area%)” value [2, 5]?
**A.** 97.38 area%

**Q.** And the “Relative to initial (%)” value [2, 5]?
**A.** 99.7%

**Q.** And the “Purity (area%)” value ([2]; Initial, listed as Crystal form A ofp-toluenesulfonate salt)?
**A.** 97.67 area%

**Q.** What about the hygroscopicity ([3]; listed as crystal form A of the p-toluenesulfonate salt) of the same compound?
**A.** slightly hygroscopic

**Q.** Which results are given for `Cc1cc(OCCN2C[C@H]3COC[C@H]3C2)ccc1-c1ccc(CC(=O)NCc2ccccc2)nc1` [Crystal form B of oxalate salt]?
**A.** S: solubility ([1]; FaSSIF, 1 hour, 60 min): 9270 µg/mL; S: solubility ([1]; FaSSIF, 4 hours, 240 min): 8890 µg/mL; S: solubility ([1]; FaSSIF, 24 hours, 1440 min): 8470 µg/mL; S: solubility ([1]; FeSSIF, 1 hour, 60 min): 3800 µg/mL; S: solubility ([1]; FeSSIF, 4 hours, 240 min): 3660 µg/mL; S: solubility ([1]; FeSSIF, 24 hours, 1440 min): 3480 µg/mL; S: solubility ([1]; H2O, 1 hour, 60 min): 9650 µg/mL; S: solubility ([1]; H2O, 4 hours, 240 min): 9650 µg/mL; S: solubility ([1]; H2O, 24 hours, 1440 min): 9360 µg/mL; S: solubility ([1]; SGF, 1 hour, 60 min): 9990 µg/mL; S: solubility ([1]; SGF, 4 hours, 240 min): 9790 µg/mL; S: solubility ([1]; SGF, 24 hours, 1440 min): 9610 µg/mL; pH ([1]; FaSSIF, 1 hour): 4.2; pH ([1]; FaSSIF, 4 hours): 4.2; pH ([1]; FaSSIF, 24 hours): 4.2; pH ([1]; FeSSIF, 1 hour): 4.7; pH ([1]; H2O, 1 hour): 3.8; pH ([1]; H2O, 4 hours): 3.8; pH ([1]; H2O, 24 hours): 3.9; pH ([1]; SGF, 1 hour): 3.1; pH ([1]; SGF, 4 hours): 3.1; pH ([1]; SGF, 24 hours): 3.1; Purity (area%) ([2]; 25°C/60%RH/open, 1 week): 97.49 area%; Relative to initial (%) ([2]; 25°C/60%RH/open, 1 week): 100.0%; Crystal form ([2]; 25°C/60%RH/open, 1 week): Crystal form B of oxalate salt; Purity (area%) ([2]; 40°C/75%RH/open, 1 week): 97.52 area%; Relative to initial (%) ([2]; 40°C/75%RH/open, 1 week): 100.1%; Crystal form ([2]; 40°C/75%RH/open, 1 week): Crystal form B of oxalate salt; Purity (area%) ([2]; Initial): 97.47 area%; hygroscopicity ([3]; listed as crystal form B of the oxalate salt): slightly hygroscopic
